Assay results reported in patent US7026326B2, “Substituted heterocyclic compounds and methods of use” (Amgen Inc., priority 2002, dated 2006).

tested on: LPS induced TNF release; test: Lipopolysaccharide-Activated THP1 Cell TNF Production Assay; format: cell-based; conditions: Homo sapiens, THP-1; THP1 cells, bacterial LPS, TNF-α secretion at 37° C. for 3 h
Description: Lipopolysaccharide-Activated THP1 Cell TNF Production Assay
THP1 cells are resuspended in fresh THP1 media (RPMI 1640, 10% heat-inactivated FBS, 1xPGS, 1XNEAA, plus 30 μM βME) at a concentration of 1E6/mL. One hundred microliters of cells per well are plated in a polystyrene 96-well tissue culture. One microgram per mL of bacterial LPS is prepared in THP1 media and is transferred to the wells. Test compounds are dissolved in 100% DMSO and are serially diluted 3 fold in a polypropylene 96-well microtiter plate (drug plate). HI control and LO control wells contain only DMSO. One microliter of test compound from the drug plate followed by 10 μL of LPS are transferred to the cell plate. The treated cells are induced to synthesize and secrete TNF-α at 37° C. for 3 h. Forty microliters of conditioned media are transferred to a 96-well polypropylene plate containing 110 μL of ECL buffer (50 mM Tris-HCl pH 8.0, 100 mM NaCl, 0.05% Tween 20, 0.05% NaN3 and 1% FBS) supplemented with 0.44 nM MAB610 monoclonal Ab (R&D Systems), 0.34 nM ruthenylated AF210NA polyclonal Ab (R&D Systems) and […] sheep anti-mouse M280 Dynabeads (Dynal). After a 2 h incubation at room temperature with shaking, the reaction is read on the ECL M8 Instrument (IGEN Inc.). A low voltage is applied to the ruthenylated TNF-α immune complexes, which in the presence of TPA (the active component in Origlo), results in a cyclical redox reaction generating light at […]. The amount of secreted TNF-α in the presence of compound compared with that in the presence of DMSO vehicle alone (HI control) is calculated using the formula: % control (POC)=(cpd−average LO)/(average HI−average LO)*100. Data (consisting of POC and inhibitor concentration in μM) is fitted to a 4-parameter equation (y=A+((B−A)/(1+((x/C)^D))), where A is the minimum y (POC) value, B is the maximum y (POC), C is the x (cpd concentration) at the point of inflection and D is the slope factor) using a Levenburg-Marquardt non-linear regression algorithm.

Compound	IC50
Cn1c(C2CCN(CC(C)(C)O)CC2)cc(-c2ccncc2)c(-c2ccc3ccccc3c2)c1=O [Example 13, 1-(2-Hydroxy-2-methyl-propyl)-1′-methyl-5′-naphthalen-2-yl-1,2,3,4,5,6-hexahydro-1′H-[4,2′;4′,4″]terpyridin-6′-one]	≤ 20 µM
CC(C)NCC1CCCN1c1cc(-c2ccncc2)c(-c2ccc3ccccc3c2)nn1 (centres unmarked) [Example 14, Isopropyl-[1-(6-naphthalen-2-yl-5-pyridin-4-yl-pyridazin-3-yl)-pyrrolidin-2-ylmethyl]-amine]	≤ 20 µM
Cn1c(C2CNC(CO)C2)cc(-c2ccncc2)c(-c2ccc3ccccc3c2)c1=O (centres unmarked) [Example 15, 6-[5-(Hydroxymethyl)pyrrolidin-3-yl]-1-methyl-3-(2-naphthyl)-4-(4-pyridyl)-hydropyridin-2-one]	≤ 20 µM
CC(C)N1CC(c2cc(-c3ccncc3)c(-c3ccc4ccccc4c3)c(=O)n2C)CC1CO (centres unmarked) [Example 16, 6-[5-(hydroxymethyl)-1-(methylethyl)pyrrolidin-3-yl]-1-methyl-3-(2-naphthyl)-4-(4-pyridyl)hydropyridin-2-one]	≤ 20 µM
Cn1c(N2CCCC2CO)cc(-c2ccncc2)c(-c2ccc(Cl)cc2)c1=O (centres unmarked) [Example 17, 3-(4-chlorophenyl)-6-[2-(hydroxymethyl)pyrrolidinyl]-1-methyl-4-(4-pyridyl)-hydropyridin-2-one]	≤ 20 µM
Cn1c(C2CCN(C[C@@H](Cc3ccccc3)NC(=O)OC(C)(C)C)CC2)cc(-c2ccncc2)c(-c2ccc3ccccc3c2)c1=O [Example 18, [(1R)-Benzyl-2-(1′-methyl-5′-naphthalen-2-yl-6′-oxo-3,4,5,6,1′,6′-hexahydro-2H-[4,2′;4′,4″]terpyridin-1-yl)-ethyl]-carbamic acid tert-butyl ester]	≤ 20 µM
Cn1c(C2CCN(C[C@H](N)Cc3ccccc3)CC2)cc(-c2ccncc2)c(-c2ccc3ccccc3c2)c1=O [Example 19, 1-{(2R)-Amino-3-phenyl-propyl}-1′-methyl-5′-naphthalen-2-yl-1,2,3,4,5,6-hexahydro-1′H-[4,2′;4′,4″]terpyridin-6′-one]	≤ 20 µM
CC(C)N[C@H](Cc1ccccc1)CN1CCC(c2cc(-c3ccncc3)c(-c3ccc4ccccc4c3)c(=O)n2C)CC1 [Example 20, 1-{(2R)-Isopropylamino-3-phenyl-propyl}-1′-methyl-5′-naphthalen-2-yl-1,2,3,4,5,6-hexahydro-1′H-[4,2′;4′,4″]terpyridin-6′-one]	≤ 20 µM
Cn1c(C2CCN(C[C@H](Cc3ccccc3)NC(=O)OC(C)(C)C)CC2)cc(-c2ccncc2)c(-c2ccc3ccccc3c2)c1=O [Example 21, [(1S)-Benzyl-2-(1′-methyl-5′-naphthalen-2-yl-6′-oxo-3,4,5,6,1′,6′-hexahydro-2H-[4,2′;4′,4″]terpyridin-1-yl)-ethyl]-carbamic acid tert-butyl ester]	≤ 20 µM
Cn1c(C2CCN(C[C@@H](N)Cc3ccccc3)CC2)cc(-c2ccncc2)c(-c2ccc3ccccc3c2)c1=O [Example 22, 1-{(2S)-Amino-3-phenyl-propyl}-1′-methyl-5′-naphthalen-2-yl-1,2,3,4,5,6-hexahydro-1′H-[4,2′;4′,4″]terpyridin-6′-one]	≤ 20 µM
CC(C)N[C@@H](Cc1ccccc1)CN1CCC(c2cc(-c3ccncc3)c(-c3ccc4ccccc4c3)c(=O)n2C)CC1 [Example 23, 1-{(2S)-Isopropylamino-3-phenyl-propyl}-1′-methyl-5′-naphthalen-2-yl-1,2,3,4,5,6-hexahydro-1′H-[4,2′;4′,4″]terpyridin-6′-one]	≤ 20 µM
Cn1c(C2CCN(CCNC(=O)OC(C)(C)C)C2)cc(-c2ccncc2)c(-c2ccc3ccccc3c2)c1=O (centres unmarked) [Example 24, {2-[3-(1-Methyl-5-naphthalen-2-yl-6-oxo-1,6-dihydro-[4,4′]bipyridinyl-2-yl)-pyrrolidin-1-yl]-ethyl}-carbamic acid tert-butyl ester]	≤ 20 µM
CC(O)CN1CCC(c2cc(-c3ccncc3)c(-c3ccc4ccccc4c3)c(=O)n2C)C1 (centres unmarked) [Example 25, 6-[1-(2-Hydroxy-propyl)-pyrrolidin-3-yl]-1-methyl-3-naphthalen-2-yl-1H-[4,4′]bipyridinyl-2-one]	≤ 20 µM
Cn1c(C2CCN(CC(C)(C)O)C2)cc(-c2ccncc2)c(-c2ccc3ccccc3c2)c1=O (centres unmarked) [Example 26, 6-[1-(2-Hydroxy-2-methyl-propyl)-pyrrolidin-3-yl]-1-methyl-3-naphthalen-2-yl-1H-[4,4′]bipyridinyl-2-one]	≤ 20 µM
Cn1c(C2CCCN2CCNC(=O)OC(C)(C)C)cc(-c2ccncc2)c(-c2ccc3ccccc3c2)c1=O (centres unmarked) [Example 27, {2-[2-(1-Methyl-5-naphthalen-2-yl-6-oxo-1,6-dihydro-[4,4′]bipyridinyl-2-yl)-pyrrolidin-1-yl]-ethyl}-carbamic acid tert-butyl ester]	≤ 20 µM
Cn1c(C2CCCN2CCN)cc(-c2ccncc2)c(-c2ccc3ccccc3c2)c1=O (centres unmarked) [Example 28, 6-[1-(2-Amino-ethyl)-pyrrolidin-2-yl]-1-methyl-3-naphthalen-2-yl-1H-[4,4′]bi-pyridinyl-2-one]	≤ 20 µM
CC(C)NC[C@H]1CCCN1c1cc(-c2ccncc2)c(-c2ccc3ccccc3c2)c(=O)n1C [Example 30, 6-[2-(Isopropylamino-methyl)-pyrrolidin-1-yl]-1-methyl-3-naphthalen-2-yl-1H-4[4,4′]bipyridinyl-2-one]	≤ 20 µM
CC(C)NCC1CCCN1c1cc(-c2ccncc2)c(-c2ccc(Cl)cc2)c(=O)n1C (centres unmarked) [Example 31, 3-(4-Chlorophenyl)-1-methyl-6-(2-{[(methylethyl)amino]methyl}pyrrolidinyl)-4-(4-pyridyl)hydropyridin-2-one]	≤ 20 µM

Further lines, results first:

IC50	Compound
≤ 20 µM	CC(C)NC[C@H]1CCCN1c1c(Cl)c(-c2ccncc2)c(-c2ccc3ccccc3c2)c(=O)n1C (stereo in doubt) [Example 29, 5-Chloro-6-[2-(isopropylamino-methyl)-pyrrolidin-1-yl]-1-methyl-3-naphthalen-2-yl-1H-[4,4′]bipyridinyl-2-one]
≤ 20 µM	CC(C)NC[C@H]1CCCN1c1nc(-c2ccncc2)c(-c2ccc(Cl)cc2)c(=O)n1C [Example 1]
≤ 20 µM	CC(C)NC[C@@H]1CCCN1c1nc(-c2ccncc2)c(-c2ccc(Cl)cc2)c(=O)n1C [Example 2]
≤ 20 µM	CC(C)NC[C@H]1CCCN1c1nc(-c2ccncc2)c(-c2cccc(Br)c2)c(=O)n1C [Example 4, 5-(3-Bromo-phenyl)-2-[2-(isopropylamino-methyl)-pyrrolidin-1-yl]-3-methyl-6-pyridin-4-yl-3H-pyrimidin-4-one]
≤ 20 µM	C=Cc1cccc(-c2c(-c3ccncc3)nc(N3CCC[C@@H]3CNC(C)C)n(C)c2=O)c1 [Example 5, 2-[2-(Isopropylamino-methyl)-pyrrolidin-1-yl]-3-methyl-6-pyridin-4-yl-5-(3-vinyl-phenyl)-3H-pyrimidin-4-one]
≤ 20 µM	CC(C)NC[C@H]1CCCN1c1nc(-c2ccncc2)c(-c2cccc(C3CC3)c2)c(=O)n1C [Example 6, 5-(3-Cyclopropyl-phenyl)-2-[2-(isopropylamino-methyl)-pyrrolidin-1-yl]-3-methyl-6-pyridin-4-yl-3H-pyrimidin-4-one]
≤ 20 µM	Cc1cccc(-c2c(-c3ccncc3)nc(N3CCC[C@@H]3CNC(C)C)n(C)c2=O)c1 [Example 7, 2-[2-(Isopropylamino-methyl)-pyrrolidin-1-yl]-3-methyl-6-pyridin-4-yl-5-m-tolyl-3H-pyrimidin-4-one]
≤ 20 µM	CC(C)NC[C@H]1CCCN1c1nc(-c2ccncc2)c(-c2ccc3ccccc3c2)c(=O)n1C [Example 8, 2-[2-(Isopropylamino-methyl)-pyrrolidin-1-yl]-3-methyl-5-naphthalen-2-yl-6-pyridin-4-yl-3H-pyrimidin-4-one]
≤ 20 µM	COC[C@@H]1CCCN1c1nc(-c2ccnc(Cl)c2)c(-c2cccc(C)c2)c(=O)n1C [Example 9, 6-(2-Chloro-pyridin-4-yl)-2-(2-methoxymethyl-pyrrolidin-1-yl)-3-methyl-5-m-tolyl-3H-pyrimidin-4-one]
≤ 20 µM	COC[C@@H]1CCCN1c1nc(-c2ccnc(N[C@@H](C)c3ccccc3)c2)c(-c2cccc(C)c2)c(=O)n1C [Example 10, 2-(2-Methoxymethyl-pyrrolidin-1-yl)-3-methyl-6-[2-(1-phenyl-ethylamino)-pyridin-4-yl]-5-m-tolyl-3H-pyrimidin-4-one]
≤ 20 µM	C[C@@H](O)CN1CCC(c2cc(-c3ccncc3)c(-c3ccc4ccccc4c3)c(=O)n2C)CC1 [Example 11, 1-(2R-Hydroxy-propyl)-1′-methyl-5′-naphthalen-2-yl-1,2,3,4,5,6-hexahydro-1′H-[4,2′;4′,4″]terpyridin-6′-one]
